pIC50: −log10 of the molar value. Like-named read-outs stand apart in the source and are kept apart here. Non-standard residues stand in square brackets, D forms with d. Residues, ends and D or L forms follow the SMILES beside them. *: point of attachment. dGla = N[C@H](CC(C(=O)O)C(=O)O)C(=O)O; Hyp = O=C(O)[C@@H]1C[C@@H](O)CN1; Cha = N[C@@H](CC1CCCCC1)C(=O)O; Abu = CC[C@H](N)C(=O)O; tBu = CC(C)(C)*
Columns and labels:
[1] = molecular target: full-length NS3/NS4A complex (Hepatitis C virus genotype 1a, UniProt P27958); assay: biochemical
Chain of full-length NS3/NS4A complex (P27958 1027-1657): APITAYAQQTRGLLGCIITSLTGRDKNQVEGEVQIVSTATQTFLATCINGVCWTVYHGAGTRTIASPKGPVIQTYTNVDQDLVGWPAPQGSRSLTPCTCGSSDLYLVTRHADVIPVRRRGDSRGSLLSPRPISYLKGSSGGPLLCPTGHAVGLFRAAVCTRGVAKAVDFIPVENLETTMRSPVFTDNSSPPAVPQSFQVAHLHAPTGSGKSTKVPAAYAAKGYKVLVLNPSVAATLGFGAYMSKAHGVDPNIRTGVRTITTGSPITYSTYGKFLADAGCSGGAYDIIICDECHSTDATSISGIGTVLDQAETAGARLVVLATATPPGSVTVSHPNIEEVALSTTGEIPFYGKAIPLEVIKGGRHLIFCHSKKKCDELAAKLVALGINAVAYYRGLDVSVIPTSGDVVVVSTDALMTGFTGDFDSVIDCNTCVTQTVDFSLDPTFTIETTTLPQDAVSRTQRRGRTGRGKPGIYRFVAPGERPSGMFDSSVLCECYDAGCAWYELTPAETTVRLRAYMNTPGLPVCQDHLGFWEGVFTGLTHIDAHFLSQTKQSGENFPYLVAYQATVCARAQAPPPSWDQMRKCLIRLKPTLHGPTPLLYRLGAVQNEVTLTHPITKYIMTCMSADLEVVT
Chain of full-length NS3/NS4A complex (P27958 1658-1711): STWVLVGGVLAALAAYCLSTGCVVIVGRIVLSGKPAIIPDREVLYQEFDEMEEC
Text: Operating Method for HCV NS3-4A Activity Assay:
Inhibition data were obtained on the full-length NS3/NS4A complex. […] A summary of the NS3 protease activity assay is described bellow.
We used the full-length NS4A-NS3 protease and a recombinant EGPF-NS5A/B-CBD fusion protein serving as a fluorescent substrate for the determination of the compounds activity.
The fluorogenic substrate was built in three parts: a Green fluorescent protein (EGFP), a peptide corresponding to the NS5A-NS5B junctions ([…]) and a Cellulose Binding Domain (CBD). The NS5A/B is the more efficiently cleavage site for NS3 than at other cleavage site of HCV polyprotein (references 15). After cleavage reaction of EGFP-NS5A/B-CBD by NS3, the un-cleaved substrate and the C-terminal domain of cleaved substrate are fixed on cellulose. After centrifugation, the released free EGFP-NS5A was quantified by fluorometry.
The inhibitors were tested in triplicate in each experiment. The inhibitor was pre-incubated with the NS3 enzyme (50 nM final concentration) for 5 minutes at 37° C. The substrate was added (100 nM final concentration) and incubated at 37° C. for 40 minutes. Then, the reaction mixture was transferred into an Eppendorf containing 5 mg of pre-equilibrated cellulose with reaction buffer 1× and agitated at room temperature for 10 minutes followed by centrifugation for 5 min at 13000 rpm. The supernatant (100 μL) containing liberated green fluorescent protein was transferred to a black 96 well plate and data was collected by a fluorometer (excitation λ=485 nm, and emission λ=538 nm). For each black 96 well plate the control of the activity and inhibition of NS3 protease, fluorescence background noise and the measure of the total fluorescence were performed. The fluorogenic substrate EGFP-NS5A/B-CBD at 100 nM final concentration was incubated with NS3 protease at 50 nM final concentration for the control of the NS3 activity. The inhibitors Ac-Asp-D-Gla-Leu-Ile-β-cyclohexyl-Ala-Cys-OH (CHAC), (references 16) PMSF and TPCK were used at various concentrations to validate the inhibition of NS3 protease reaction. The fluorescence background noise was obtained with the fluorogenic substrate EGFP-NS5A/B-CBD at 100 nM, and the control of the maximum fluorescence was obtained with the fluorogenic substrate EGFP-NS5A/B-CBD at 100 nM without the step of the fixation on pre-equilibrated cellulose.

four different strains = assay: ames test; settings: with or without metabolic activation
Text: The compounds of the present invention present the advantage to be non bactericidal and/or non mutagenic. The ames test with four different strains, with or without metabolic activation, has been carried out with the above cited compounds (in particular, compound 5). The results thereof have shown that the compounds above identified (in particular, compound 5) are non mutagenic.

HCV = HCV replication in primary cultures of human hepatocytes infected in vitro; assay type: cell-based, HCV genotype 3 (serum S183) in human hepatocytes; settings: 1 μM of compound; hepatocyte cultures FT200, FT201, FT203; 5 days; FIG. 5
Experimental: More particularly, the in vitro primary cultures of human hepatocytes were prepared as follows: hepatocytes were prepared from liver tissue resected from donors who tested negative for HCV, and inoculation was performed 3 days after plating with 33 HCV serum samples of different virus load and genotype. The presence of intracellular HCV RNA, detected by a strand-specific rTth RT-PCR assay, was used as evidence of infection. […] At day 5, the copy level of viral RNA was estimated to be amplified at least 15-fold in infected cells. […] This model represents therefore a valuable tool for the study of initial steps of the HCV replication cycle and for the evaluation of antiviral molecules.
The basic protocol was as follows: 1) human hepatocytes extracted from liver lobectomies of HCV-negative patients were cultured in the long-term culture system mentioned above; 2) cells were then infected in vitro with an aliquot of serum from HCV-positive patients; 3) after a few days of culture (1 to 14 days), cellular RNA was extracted and analyzed for HCV RNA (+) and (−) strands using a highly specific rtTh. […]
RNA was extracted and analyzed using: first, rtTh RT-PCR and agarose gel electrophoresis (control of the presence of the replicative strand); and second, quantitative RT-PCR using (a) the genomic strand of HCV, and (b) GAPDH RNA/GAPDH RNA as an internal control. […]

[2] = enzyme 50 nM, substrate 100 nM, 37° C., 40 minutes, read-out: NS3 IC50

| SMILES | pIC50 [1] | mutagenicity (ames test) (four different strains) | pIC50 [1, 2] | Inhibitory effect expressed as the ratio HCV RNA/GAPDH RNA (HCV) |
| --- | --- | --- | --- | --- |
| CC[C@H](C)[C@H](NC(=O)[C@H](CC(C)C)NC(=O)[C@@H](CC(C(=O)O)C(=O)O)NC(=O)[C@H](CC(=O)O)NC(C)=O)C(=O)N[C@@H](CC1CCCCC1)C(=O)N[C@@H](CS)C(=O)O [CHAC, Ac-Asp-D-Gla-Leu-Ile-β-cyclohexyl-Ala-Cys-OH, reference compound] (Ac-D[dGla]LI[Cha]C-OH) | 7.40 |  |  |  |
| CC(C)(C)OC(=O)N[C@@H](CCC(=O)O)C(=O)N1C[C@H](OC(C)(C)C)C[C@H]1C(=O)NC(CC(F)(F)F)C(=O)O (stereo partly drawn) [Compound 5] |  | non mutagenic | 3.82 | significant inhibitory effect |
| CC[C@H](NC(=O)[C@@H]1C[C@@H](OC(C)(C)C)CN1C(=O)[C@@H](NC(C)=O)C(C)C)C(=O)O [Compound 18] (Ac-Val-[Hyp](tBu)-[Abu]-OH) |  |  | 4.52 |  |
| Cc1ccc(S(=O)(=O)NC(Cc2ccccc2)C(=O)CCl)cc1 [TPCK, L-1-4′-Tosylamino-2-phenylethyl chloromethyl ketone, reference compound] | 3.05 |  |  |  |

From patent US20060142204A1, “Pyrrolidine derivatives for use in treating heaptitis c virus infection” (GENOSCIENCE, priority 2002, published 2006)
